Source: ChEMBL document CHEMBL1201862, “PubChem BioAssay data set” (2004)
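Dose response: 5 concentrations. Exposure: 48 h. Format: 96-well plates. Endpoint: linear interpolation; highest concentration if not reached. GI50: concentration for 50% inhibition of growth.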 Activity calls are given as the source filed them. No stated cut-off is given here; in the data, active = GI50 up to about 1.1 µM and inactive = higher.

Legend:
Assay in all cases: growth of human tumour cells (NCI), 48 h
[1] = test system: 786-0
[2] = test system: EKVX
[3] = test system: HCT-15
[4] = test system: HOP-92
[5] = test system: HT-29
[6] = test system: LOX IMVI
[7] = test system: MCF7
[8] = test system: NCI-H460
[9] = test system: OVCAR-3
[10] = test system: PC-3
[11] = test system: RXF 393
[12] = test system: SF-268
[13] = test system: SK-OV-3
[14] = test system: SN12C
[15] = test system: SNB-19
[16] = test system: UACC-62
[17] = test system: UO-31
[18] = test system: CAKI-1
[19] = test system: HL-60
[20] = test system: SR

SMILES | GI50 [1] | GI50 [2] | GI50 [3] | GI50 [4] | GI50 [5] | GI50 [6] | GI50 [7] | GI50 [8] | GI50 [9] | GI50 [10] | GI50 [11] | GI50 [12] | GI50 [13] | GI50 [14] | GI50 [15] | GI50 [16] | GI50 [17] | GI50 [18] | GI50 [19] | GI50 [20]
O=C(/C=C/c1ccc(O)c(O)c1)OCCc1ccc2ccccc2c1 | 8.59 µM (inactive) | 14.6 µM (inactive) | 2.49 µM | 6.35 µM (inactive) | 12.9 µM (inactive) | 6.98 µM (inactive) | 2.74 µM (inactive) | 7.05 µM (inactive) | 3.26 µM (inactive) | 7.55 µM (inactive) | 9.46 µM (inactive) | 10.9 µM (inactive) | 13.5 µM (inactive) | 5.26 µM (inactive) | 12.8 µM (inactive) | 3.69 µM (inactive) | 3.19 µM (inactive) | – | – | –
Cc1cc(=O)n2nc(CSc3nnc(N)s3)sc2n1 | > 100 µM (inactive) | > 100 µM (inactive) | > 100 µM | > 100 µM (inactive) | > 100 µM (inactive) | > 100 µM (inactive) | > 100 µM (inactive) | > 100 µM (inactive) | > 100 µM (inactive) | > 100 µM (inactive) | > 100 µM (inactive) | > 100 µM (inactive) | > 100 µM (inactive) | > 100 µM (inactive) | > 100 µM (inactive) | > 100 µM (inactive) | > 100 µM (inactive) | > 100 µM (inactive) | > 100 µM (inactive) | –
CCc1cc2c(c3c1CCC3=O)CC1(Cc3ccc(C)cc3C1)C2 (stereo not drawn) | 96.8 µM (inactive) | 16.8 µM (inactive) | 46.3 µM | 22.7 µM (inactive) | 18.1 µM (inactive) | 50.4 µM (inactive) | 32.2 µM (inactive) | – | 37.3 µM (inactive) | 23 µM (inactive) | 34.8 µM (inactive) | – | 71.3 µM (inactive) | 43.4 µM (inactive) | – | 22.2 µM (inactive) | 0.159 µM (active) | – | 21.7 µM (inactive) | –
[O-][S+]1C(=c2ccc(=C3Sc4ccccc4S3)cc2)Sc2ccccc21 (stereo not drawn) | 17 µM (inactive) | 20 µM (inactive) | 15.3 µM | > 67.3 µM (inactive) | 22.6 µM (inactive) | 17.9 µM (inactive) | – | 18.2 µM (inactive) | > 100 µM (inactive) | – | 24.2 µM (inactive) | 12.4 µM (inactive) | 21.8 µM (inactive) | 15.6 µM (inactive) | 17 µM (inactive) | 18.1 µM (inactive) | 17.2 µM (inactive) | > 52.7 µM (inactive) | > 100 µM (inactive) | 89.5 µM (inactive)
CCOC(=O)Cc1nc2c(O)ncnc2n1C1OC(COC(C)=O)C(OC(C)=O)C1OC(C)=O (stereo not drawn) | > 100 µM (inactive) | > 100 µM (inactive) | > 100 µM | > 100 µM (inactive) | > 100 µM (inactive) | > 100 µM (inactive) | > 100 µM (inactive) | > 100 µM (inactive) | > 100 µM (inactive) | > 100 µM (inactive) | > 100 µM (inactive) | > 100 µM (inactive) | > 100 µM (inactive) | > 100 µM (inactive) | > 100 µM (inactive) | > 100 µM (inactive) | > 100 µM (inactive) | > 100 µM (inactive) | > 100 µM (inactive) | –
O=C(c1cccc(C(=O)c2ccc3c4c(cccc24)C(=O)N(c2ccccc2)C3=O)c1)c1ccc2c3c(cccc13)C(=O)N(c1ccccc1)C2=O | > 100 µM (inactive) | 38 µM (inactive) | > 100 µM | 42.3 µM (inactive) | > 100 µM (inactive) | 23.3 µM (inactive) | 28.2 µM (inactive) | > 100 µM (inactive) | > 100 µM (inactive) | > 100 µM (inactive) | > 100 µM (inactive) | > 100 µM (inactive) | > 100 µM (inactive) | > 100 µM (inactive) | > 100 µM (inactive) | 40 µM (inactive) | > 100 µM (inactive) | > 100 µM (inactive) | – | –
CSC1=N/C(=C\c2ccc(Cl)cc2)C(=O)N1CN1CCCCC1 | 42.8 µM (inactive) | 16.6 µM (inactive) | 25.9 µM | – | 35.6 µM (inactive) | 44.7 µM (inactive) | 5.33 µM (inactive) | – | 34.2 µM (inactive) | 35.3 µM (inactive) | – | 27.4 µM (inactive) | 35.1 µM (inactive) | 67.5 µM (inactive) | – | 65.8 µM (inactive) | 23.6 µM (inactive) | – | – | 25 µM (inactive)
CC(=O)OCC1OC(SC2=N/C(=C\c3ccc(Br)s3)C(=O)N2CN2CCOCC2)C(OC(C)=O)C(OC(C)=O)C1OC(C)=O (stereo not drawn) | 16.7 µM (inactive) | 8.22 µM (inactive) | 16.6 µM | – | 15.5 µM (inactive) | 12.9 µM (inactive) | 15.4 µM (inactive) | 18.6 µM (inactive) | > 10 µM (inactive) | 23 µM (inactive) | – | 32.8 µM (inactive) | – | 13.6 µM (inactive) | 19.9 µM (inactive) | 15.4 µM (inactive) | 15.5 µM (inactive) | 17.9 µM (inactive) | 3.77 µM (inactive) | 12.6 µM (inactive)
COc1cc(/C=C2/SC(c3ccccc3)N(c3cccc([N+](=O)[O-])c3)C2=O)cc(OC)c1OC (stereo not drawn) | > 100 µM (inactive) | > 100 µM (inactive) | > 100 µM | > 100 µM (inactive) | – | > 100 µM (inactive) | 46.2 µM (inactive) | > 100 µM (inactive) | > 100 µM (inactive) | – | > 100 µM (inactive) | > 100 µM (inactive) | > 100 µM (inactive) | > 100 µM (inactive) | > 100 µM (inactive) | 95.3 µM (inactive) | > 100 µM (inactive) | > 100 µM (inactive) | 60.8 µM (inactive) | –
O[C@@H]1[C@H](OC2c3ccccc3-c3ccccc32)[C@H](OCc2ccccc2)[C@@H]2OC[C@H]1O2 | 19.7 µM (inactive) | > 100 µM (inactive) | > 100 µM | > 100 µM (inactive) | > 100 µM (inactive) | > 100 µM (inactive) | > 100 µM (inactive) | – | > 100 µM (inactive) | 63.2 µM (inactive) | > 100 µM (inactive) | 57.1 µM (inactive) | – | > 100 µM (inactive) | 58.2 µM (inactive) | > 100 µM (inactive) | > 100 µM (inactive) | > 100 µM (inactive) | > 100 µM (inactive) | –
NNC(=O)c1ccccc1NC(=O)/C(=C/c1ccccc1O)NC(=O)c1ccccc1 | 16.3 µM (inactive) | 33.6 µM (inactive) | 21.7 µM | 38.9 µM (inactive) | > 100 µM (inactive) | 47.1 µM (inactive) | 5.07 µM (inactive) | 22.8 µM (inactive) | – | – | 63 µM (inactive) | 12.8 µM (inactive) | 39.7 µM (inactive) | 28 µM (inactive) | 24.1 µM (inactive) | 67.1 µM (inactive) | 11.9 µM (inactive) | 12.9 µM (inactive) | > 100 µM (inactive) | 0.0156 µM (active)
Nc1cc2ncnc(Nc3cccc(Br)c3)c2cn1 | 19.5 µM (inactive) | – | 12.3 µM | 26.4 µM (inactive) | 31.4 µM (inactive) | 38 µM (inactive) | – | 30 µM (inactive) | 15.8 µM (inactive) | 28.5 µM (inactive) | 41.5 µM (inactive) | 58.2 µM (inactive) | 8.18 µM (inactive) | 17.6 µM (inactive) | 67.5 µM (inactive) | 38.5 µM (inactive) | 21.5 µM (inactive) | 32.4 µM (inactive) | > 100 µM (inactive) | > 100 µM (inactive)
NNC(=O)Cc1cccnc1 | > 100 µM (inactive) | > 100 µM (inactive) | > 100 µM | > 100 µM (inactive) | > 100 µM (inactive) | > 100 µM (inactive) | > 100 µM (inactive) | > 100 µM (inactive) | > 100 µM (inactive) | > 100 µM (inactive) | > 100 µM (inactive) | > 100 µM (inactive) | > 100 µM (inactive) | > 100 µM (inactive) | > 100 µM (inactive) | > 100 µM (inactive) | > 100 µM (inactive) | > 100 µM (inactive) | > 100 µM (inactive) | –
O=C1NC2ON=C(c3ccccc3)C2C2ON=C(c3ccccc3)N12 (stereo not drawn) | > 100 µM (inactive) | > 100 µM (inactive) | 43.4 µM | – | 41.2 µM (inactive) | 90.4 µM (inactive) | 77.4 µM (inactive) | > 100 µM (inactive) | > 100 µM (inactive) | 72.4 µM (inactive) | > 100 µM (inactive) | > 100 µM (inactive) | > 100 µM (inactive) | – | 92 µM (inactive) | > 100 µM (inactive) | > 100 µM (inactive) | > 100 µM (inactive) | – | –
CC[C@@]1(CCC(=O)NCCc2c[nH]c3ccccc23)CCC(=O)N2CCc3c([nH]c4ccccc34)[C@H]21 | 11.7 µM (inactive) | 12.2 µM (inactive) | 20 µM | 79.3 µM (inactive) | – | 27.4 µM (inactive) | 4.44 µM (inactive) | 6.89 µM (inactive) | 24.5 µM (inactive) | 5.56 µM (inactive) | 6.12 µM (inactive) | 5.64 µM (inactive) | 36.2 µM (inactive) | 39.5 µM (inactive) | 9.71 µM (inactive) | 17.1 µM (inactive) | 22.9 µM (inactive) | > 100 µM (inactive) | – | –
Cn1cnc2c(OCC3CCCCC3)nc(N)nc21 | > 100 µM (inactive) | > 100 µM (inactive) | > 100 µM | 32.4 µM (inactive) | 73.8 µM (inactive) | 66.1 µM (inactive) | 11.7 µM (inactive) | > 100 µM (inactive) | > 100 µM (inactive) | > 100 µM (inactive) | > 100 µM (inactive) | > 100 µM (inactive) | > 100 µM (inactive) | > 100 µM (inactive) | > 100 µM (inactive) | > 100 µM (inactive) | 72.9 µM (inactive) | > 100 µM (inactive) | > 100 µM (inactive) | –
